Experimental data reported in ChEMBL document CHEMBL1136245, “HIV-1 protease inhibitors with picomolar potency against PI-resistant HIV-1 by modification of the P1' substituent” (Bioorg Med Chem Lett, 2003).
Converted amounts (≈) assume the structure as drawn.

Key:
[1] = Clearance of compound after both po and iv administration at a dose of 5 mg/kg and 2 mg/kg resp in dog; type: ADME, organism-based, Canis lupus familiaris; details: in vivo
[2] = Half life of compound after both po and iv administration at a dose of 5 mg/kg and 2 mg/kg resp in dog; type: ADME, organism-based, Canis lupus familiaris; details: in vivo
[3] = Solubility of compound at pH 5.2; type: physicochemical; details: buffer
MT4 [4] = assay: Antiviral activity of compound against spread of wild type K-60C virus infection in MT-4 human T-lymphoid cells; type: functional; details: read-out: CIC95
MT4 [5] = assay: Antiviral activity of compound against spread of wild type NL4-3 virus infection in MT-4 human T-lymphoid cells; type: functional; details: read-out: CIC95
[6] = biological target: T1, Human immunodeficiency virus type 1 protease (Human immunodeficiency virus 1, UniProt Q72874); assay: Inhibitory activity of compound against HIV-1 protease in HIV-1 (Q-60C) strain
MT4 [7] = assay: Antiviral activity of compound against spread of wild type V-18C virus infection in MT-4 human T-lymphoid cells; type: functional; details: read-out: CIC95
[8] = biological target: T1, Human immunodeficiency virus type 1 protease; assay: Inhibitory activity of compound against HIV-1 protease in HIV-1 (K-60C) strain
MT4 [9] = assay: Antiviral activity of compound against spread of wild type Q-60C virus infection in MT-4 human T-lymphoid cells; type: functional; details: read-out: CIC95
[10] = Area under curve of compound after both po and iv administration at a dose of 5 mg/kg and 2 mg/kg resp in dog; type: ADME, organism-based, Canis lupus familiaris; details: in vivo
[11] = biological target: T1, Human immunodeficiency virus type 1 protease; assay: Inhibitory activity of compound against HIV-1 protease in HIV-1 (V-18C) strain
[12] = biological target: T1, Human immunodeficiency virus type 1 protease; assay: Inhibitory activity of compound against HIV-1 protease in wild type NL4-3 virus
Cytochrome P450 2D6 [13] = biological target: T2, Cytochrome P450 2D6 (Homo sapiens, UniProt P10635); assay: (§1) Inhibition of human liver microsome Cytochrome P450 2D6; type: ADME
Cytochrome P450 3A4 = Cytochrome P450 3A4 (Homo sapiens, UniProt P08684); assay: Inhibition of human liver microsome Cytochrome P450 3A4; type: ADME, microsomes
Cytochrome P450 2C9 [14] = biological target: T3, Cytochrome P450 2C9 (Homo sapiens, UniProt P11712); assay: Inhibition of human liver microsome Cytochrome P450 2C9; type: ADME, microsomes
[15] = Cmax of compound after both po and iv administration at a dose of 5 mg/kg and 2 mg/kg resp in dog; type: ADME, organism-based, Canis lupus familiaris; details: in vivo
Cytochrome P450 2C9 [16] = biological target: T3, Cytochrome P450 2C9; assay: Inhibition of huamn liver microsome Cytochrome P450 2C9; type: ADME, microsomes
Cytochrome P450 2D6 [17] = biological target: T2, Cytochrome P450 2D6; assay: as §1; type: ADME, microsomes
[18] = Oral bioavailability in dog (dose 5 mg/kg p.o. and 2 mg/kg i.v.); type: ADME, organism-based, Canis lupus familiaris; details: in vivo

T3 sequence (P11712 whole entry): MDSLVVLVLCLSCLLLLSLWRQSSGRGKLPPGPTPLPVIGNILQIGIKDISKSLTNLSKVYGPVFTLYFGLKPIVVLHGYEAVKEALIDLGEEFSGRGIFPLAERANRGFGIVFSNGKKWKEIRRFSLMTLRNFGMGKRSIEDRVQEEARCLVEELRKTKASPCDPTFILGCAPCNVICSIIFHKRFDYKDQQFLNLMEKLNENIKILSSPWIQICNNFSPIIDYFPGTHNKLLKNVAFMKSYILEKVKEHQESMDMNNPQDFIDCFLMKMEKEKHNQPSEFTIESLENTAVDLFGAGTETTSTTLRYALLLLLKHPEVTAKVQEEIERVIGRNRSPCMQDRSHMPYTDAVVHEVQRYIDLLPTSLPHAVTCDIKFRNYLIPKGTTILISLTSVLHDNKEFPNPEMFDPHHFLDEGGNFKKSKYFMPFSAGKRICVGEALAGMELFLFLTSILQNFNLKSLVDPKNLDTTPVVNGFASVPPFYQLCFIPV
Sequence of Cytochrome P450 3A4 (P08684 whole entry): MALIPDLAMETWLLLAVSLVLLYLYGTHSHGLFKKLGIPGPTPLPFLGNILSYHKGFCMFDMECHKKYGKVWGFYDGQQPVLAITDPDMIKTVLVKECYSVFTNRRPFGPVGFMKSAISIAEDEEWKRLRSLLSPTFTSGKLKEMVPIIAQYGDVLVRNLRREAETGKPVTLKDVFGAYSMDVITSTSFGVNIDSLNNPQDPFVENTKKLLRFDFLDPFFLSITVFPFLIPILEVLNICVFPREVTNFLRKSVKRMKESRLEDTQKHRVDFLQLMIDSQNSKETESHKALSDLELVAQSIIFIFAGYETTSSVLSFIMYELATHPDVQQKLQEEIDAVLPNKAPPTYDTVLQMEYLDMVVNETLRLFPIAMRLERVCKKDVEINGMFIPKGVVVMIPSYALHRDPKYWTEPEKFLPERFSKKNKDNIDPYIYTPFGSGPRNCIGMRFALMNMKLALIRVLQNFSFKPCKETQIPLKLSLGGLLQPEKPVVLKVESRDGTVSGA
T2 sequence (P10635 whole entry): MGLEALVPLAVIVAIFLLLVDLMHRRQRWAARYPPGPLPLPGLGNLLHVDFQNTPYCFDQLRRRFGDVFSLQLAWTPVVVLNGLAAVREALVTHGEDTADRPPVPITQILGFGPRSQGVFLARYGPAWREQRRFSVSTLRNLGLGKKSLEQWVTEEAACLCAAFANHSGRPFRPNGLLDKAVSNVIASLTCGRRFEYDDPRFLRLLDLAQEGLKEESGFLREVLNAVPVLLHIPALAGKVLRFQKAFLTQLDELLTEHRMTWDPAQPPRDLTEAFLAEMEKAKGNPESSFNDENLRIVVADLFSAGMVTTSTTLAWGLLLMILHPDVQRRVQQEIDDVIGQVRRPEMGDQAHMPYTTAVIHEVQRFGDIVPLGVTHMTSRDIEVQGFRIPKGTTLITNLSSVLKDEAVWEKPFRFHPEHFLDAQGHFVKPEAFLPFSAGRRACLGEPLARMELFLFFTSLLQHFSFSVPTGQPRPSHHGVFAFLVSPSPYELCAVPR

Row | SMILES | clearance [1] [mL/min/kg] | half-life [2] [h] | solubility [3] [µg/mL] | IC95 (MT4 [4]) [nM] | IC95 (MT4 [5]) [nM] | IC50 [6] [nM] | IC95 (MT4 [7]) [nM] | IC50 [8] [nM] | IC95 (MT4 [9]) [nM] | AUC [10] [µM·h] | IC50 [11] [nM] | IC50 [12] [nM] | IC50 (Cytochrome P450 2D6 [13]) [nM] | IC50 (Cytochrome P450 3A4) [nM] | IC50 (Cytochrome P450 2C9 [14]) [nM] | Cmax [15] [nM] | IC50 (Cytochrome P450 2C9 [16]) [nM] | IC50 (Cytochrome P450 2D6 [17]) [nM] | bioavailability [18] [%]
1 | O=C(N[C@H]1c2ccccc2OC[C@H]1O)[C@H](Cc1ccccc1)C[C@H](O)CN1CCN(Cc2ccc(-c3ccncc3)o2)C[C@H]1C(=O)NCC(F)(F)F | 24.5 | 1 | 670 (≈ 928 µM) | 15 | ≤ 8 | 0.8 | 31 | 0.6 | 31 | 2.58 | 1.3 |  |  |  |  |  |  |  | 
2 | O=C(N[C@H]1c2ccccc2OC[C@H]1O)[C@H](Cc1ccncc1)C[C@H](O)CN1CCN(Cc2cc3cccc(Cl)c3o2)C[C@H]1C(=O)NCC(F)(F)F |  |  | < 10 | 62 | ≤ 8 |  | ≤ 8 | 0.92 | 125 |  | 0.14 | 0.03 |  |  |  |  |  |  | 
3 | O=C(N[C@H]1c2ccccc2OC[C@H]1O)[C@H](Cc1cccnc1)C[C@H](O)CN1CCN(Cc2cc3cccc(Cl)c3o2)C[C@H]1C(=O)NCC(F)(F)F |  |  | 10 (≈ 13.7 µM) | 31 | 10 |  | ≤ 8 |  | 31 |  | 0.12 | 0.02 | 8800 | 500 | 27300 |  |  |  | 
4 | O=C(N[C@H]1c2ccccc2OC[C@H]1O)[C@H](Cc1cccnc1)C[C@H](O)CN1CCN(Cc2cc3ccccc3o2)C[C@H]1C(=O)NCC(F)(F)F | 15 | 0.867 | 310 (≈ 446 µM) | 125 | 15 | 2.7 | 31 | 3.7 | 125 | 1.94 | 1.3 | 0.04 |  | 480 |  | 3360 | 48800 | 19000 | 24
5 | O=C(N[C@H]1c2ccccc2OC[C@H]1O)[C@H](Cc1ccncc1)C[C@H](O)CN1CCN(Cc2cc3ccccc3o2)C[C@H]1C(=O)NCC(F)(F)F | 22.5 | 1.7 | 280 (≈ 402 µM) |  | 15 |  |  | 10 | 250 | 0.22 | 2.2 | 0.1 |  | 2200 |  | 380 |  | 3600 | 4
6 | O=C(N[C@H]1c2ccccc2OC[C@H]1O)[C@H](Cc1ccncc1)C[C@H](O)CN1CCN(Cc2ccc(-c3ccccc3)o2)C[C@H]1C(=O)NCC(F)(F)F | 17.4 | 1.07 | 40 (≈ 55.4 µM) | ≤ 8 | 15 | 0.2 | 31 | 0.11 | 31 | 0.16 | 0.34 | 0.04 |  | 1500 |  | 210 |  | 14900 | 2
7 | O=C(N[C@H]1c2ccccc2OC[C@H]1O)[C@H](Cc1cccnc1)C[C@H](O)CN1CCN(Cc2ccc(-c3ccccc3)o2)C[C@H]1C(=O)NCC(F)(F)F | 20.5 | 1.23 | 10 (≈ 13.9 µM) | ≤ 8 | ≤ 8 | 0.07 | ≤ 8 | 0.06 | ≤ 8 | 0.08 | 0.15 | 0.02 |  | 430 |  | 110 | 83900 | 15600 | 1
8 | CC(C)(C)NC(=O)[C@@H]1CN(Cc2cccnc2)CCN1C[C@@H](O)C[C@@H](Cc1ccccc1)C(=O)N[C@H]1c2ccccc2C[C@H]1O |  |  |  | > 1000 | 50 |  | > 1000 |  | > 1000 |  |  |  |  |  |  |  |  |  | 
